# Experimental data published in article PMC7604625, “Glycolysis regulates Hedgehog signalling via the plasma membrane potential” (The EMBO Journal, 2020).
# Assays:
# [1] = tested on: Smo-mEos2 localization to the primary cilium in NIH3T3 cells; assay: Smo-mEos2 ciliary localization in NIH3T3/Smo-mEos2 cells (immunofluorescence); type: cell-based; conditions: Hh ligands not present
# Experimental: NIH3T3/Smo‐mEos2 cells (Kim et al, 2014) (a gift from P. Beachy, SUSM, Stanford, CA, USA) were grown to confluence on coverslips in DMEM (Thermo Fisher Scientific, #31966021) supplemented with 10% FBS (Thermo Fisher Scientific, #10270106), 1% penicillin/streptomycin (Thermo Fisher Scientific, #15140122) and 1% MEM non‐essential amino acids (Thermo Fisher Scientific, #11140050) at 37°C. For SAG, 3‐BP and 2‐DG treatment, cells were then shifted to serum‐deprived medium containing 0.5% FBS instead of 10% FBS and incubated for 24 h with 100 nM SAG (Merck, #566660), 25 mM of 2‐DG (ROTH, #CN96.3) or 15 μM 3‐BP (Sigma‐Aldrich, #16490‐10G), respectively, or without any compound at 37°C. […]
# (§1) Only ring glands and wing discs that were processed in parallel, imaged using the same microscope settings, and properly mounted were used for quantifications. For quantification of immunohistochemical staining of CD8::GFP in ring glands, the mean pixel intensity of two regions of interest of 25 × 25 μm per ring gland was determined using ROI manager, and the average of these was used for the statistical analysis. For quantification of compartment size, wing disc folds served as morphological landmarks to outline the region of the wing pouch and the D/V boundary. The area of dorsal and ventral compartment was then determined using ROI manager. […] The mean grey value was measured using ROI manager. […]
# [2] = tested on: ATP levels in ubi-AT1.03NL wing discs; assay: Measurement of ATP using FRET-based ATP sensor AT1.03NL in explanted wing discs; type: cell-based, Drosophila; conditions: explanted wing discs treated with antimycin A for 2 h
# Experimental: Wing discs from up‐crawling third‐instar larvae were dissected within 10 min in Grace's medium supplemented with 5% FBS and 20 nM 20‐hydroxyecdysone (Dye et al, 2017). Dissected wing discs were mounted with their basal side up on glass‐bottom dishes (MatTek Corporation, #P35G‐1.0‐20‐C) with a double‐sided tape spacer and immobilized with a Whatman™ Cyclopore™ track‐etched polycarbonate membrane filter (GE Healthcare Life Sciences, #7062‐2513). Imaging of ubi‐AT1.03NL wing discs was performed on an Olympus IX81 microscope equipped with Yokogawa spinning disk (CSU‐W1, Yokogawa) and Ixon Ultra EMCCD camera (Andor). The sensitized emission method was used to measure FRET. Wing discs were excited with a 445 nm laser twice in a sequential manner. Upon first excitation, emission of mse‐CFP was collected using an HQ 480/40 bandpass filter. Upon second excitation, emission of cpVenus‐FRET was collected using an HQ 542/27 filter. The emission of cpVenus‐FRET has contributions from the energy transfer from mse‐CFP and bleed‐through of mse‐CFP into the HQ 542/27 filter. […]
# A custom‐written MATLAB (MathWorks) script was used to estimate the FRET efficiency from the fluorescence images. […]
# The FRET efficiency (η) was calculated as, η=IFRET/ID+IFRET […]
# [3] = tested on: PAC-NAE uptake into wing discs; assay: Lipophorin-mediated PAC-NAE uptake in wing discs; type: cell-based, Drosophila
# Experimental: The isolation procedure of Lipophorin (Lpp) particles was adapted from Panakova et al (2005). Briefly, 10 ml feeding third‐instar larvae were first washed with water and then with TNE buffer (100 mM Tris–HCl pH 7.5, 150 mM NaCl, 0.2 mM EGTA, cOmplete™ protease inhibitor cocktail (Roche, #000000011697498001)). All following steps were conducted at 4 °C (unless stated otherwise). Larvae were homogenized in TNE buffer in a tissue grinder with a loose pestle, and the homogenate was centrifuged for 10 min at 1,000 × g and afterwards for 3 h at 142,000 × g. The resulting supernatant (10 ml) was mixed with 40 μl 10 mM PAC‐NAE (EtOH solution) and sonicated for 5 min. […]
# as §1, with “A/P boundary” for “mean grey value”, “determined according to anti‐Ci155 or anti‐Ptc co‐immunostaining.” for “measured using ROI manager.”
# [4] = tested on: plasma membrane potential of wing discs; assay: Membrane potential assay with DiBAC4(3) in wing discs; type: cell-based, Drosophila; conditions: wing discs incubated with 1 μM gramicidin A for 30 min at 29°C
# Experimental: To investigate the plasma membrane potential, we used the membrane potential‐sensitive dye DiBAC4(3) (Thermo Fisher Scientific, #B438). Wing discs from up‐crawling third‐instar larvae were dissected in Grace's medium supplemented with 5% FBS and 20 nM 20‐hydroxyecdysone (full medium) (Dye et al, 2017), and incubated with 500 nM DiBAC4(3) in full medium for 15 min at 29°C. After washing twice with full medium, wing discs were mounted and imaged immediately. A higher fluorescence intensity of DiBAC4(3) indicates depolarization of the plasma membrane. […]
# Only ring glands and wing discs that were processed in parallel, imaged using the same microscope settings, and properly mounted were used for quantifications. For quantification of immunohistochemical staining of CD8::GFP in ring glands, the mean pixel intensity of two regions of interest of 25 × 25 μm per ring gland was determined using ROI manager, and the average of these was used for the statistical analysis. For quantification of compartment size, wing disc folds served as morphological landmarks to outline the region of the wing pouch and the D/V boundary. The area of dorsal and ventral compartment was then determined using ROI manager. […] The A/P boundary was determined according to anti‐Ci155 or anti‐Ptc co‐immunostaining. […] The mean grey value was measured using ROI manager. […] The integrated density was measured using ROI manager. […]
compound,measurement,setting,value
"O=C(O)C(=O)CBr [3-BP, 3‐bromopyruvate]",Smo-mEos2 accumulation in the primary cilium,[1],accumulates in the primary cilium
CCCCCC[C@H]1C(=O)O[C@H](C)[C@H](NC(=O)c2cccc(NC=O)c2O)C(=O)O[C@@H](C)[C@@H]1OC(=O)CC(C)C [antimycin A],FRET signal of ubi-AT1.03NL (cellular ATP levels),[2],strongly reduced
"O=CC[C@@H](O)[C@H](O)[C@H](O)CO [2-DG, 2‐deoxyglucose]",Smo-mEos2 accumulation in the primary cilium,[1],accumulates in the primary cilium
C#CCCCC1(CCCCCCCCC(=O)NCCO)N=N1 [PAC-NAE],PAC-NAE accumulation in wing disc tissue,"[3]; knock-down of either ecd or Gapdh in the dorsal compartment, 1.5 μM PAC-NAE labelled Lpp particles",autonomously reduced
gramicidin A,Plasma membrane potential (DiBAC4(3) signal intensity),[4],dissipate the plasma membrane potential
same,Uptake of PAC-NAE,"[3]; wing discs incubated with 1 μM gramicidin A, compared to control discs",strongly reduces
